pEC50: −log10 of the molar value. The source made the active and inactive calls. No cut-off for these calls is given here.
Tests used:
[1] = Stability of the compound in 20% fetal bovine serum assessed as drug degradation at 100 uM measured at 72 hrs by HPLC analysis; type: ADME, cell-free, Bos taurus; details: cattle
[2] = target: T1, Stimulator of interferon genes protein (Homo sapiens, UniProt Q86WV6); experiment: Agonist activity at STING in human THP-1 reporter cells incubated for 24 hrs by QUANTI-Luc assay; type: cell-based
[3] = target: T1, Stimulator of interferon genes protein; experiment: Agonist activity at STING in human THP-1 reporter cells incubated for 4 hrs in presence of lipofectamine 2000 by QUANTI-Luc assay; type: cell-based
[4] = target: T1, Stimulator of interferon genes protein; experiment: Agonist activity at STING in PMA-treated human THP-1 reporter cells incubated for 30 mins in presence of digitonin by QUANTI-Luc assay; type: cell-based
[5] = Toxicity in BALB/c mouse implanted with mouse CT26 cells expressing high luciferase assessed as mouse survival rate at 0.5 mg/kg, IT administered intratumorally on day 1,3,5,7 and measured at 50 days; type: organism-based; details: in vivo, route it(Intratumoral), time 50 day
[6] = system: CT26; experiment: Antitumor activity against mouse CT26 cells expressing high luciferase implanted in BALB/c mouse assessed as darkening of tumor tissue at 0.5 mg/kg, IT administered intratumorally on day 1,3,5,7 and measured on day 1,9,14,24 by fluorescence imaging analysis; type: functional, organism-based; details: route it(Intratumoral), time 24.0 day

T1 sequence (Q86WV6 whole entry): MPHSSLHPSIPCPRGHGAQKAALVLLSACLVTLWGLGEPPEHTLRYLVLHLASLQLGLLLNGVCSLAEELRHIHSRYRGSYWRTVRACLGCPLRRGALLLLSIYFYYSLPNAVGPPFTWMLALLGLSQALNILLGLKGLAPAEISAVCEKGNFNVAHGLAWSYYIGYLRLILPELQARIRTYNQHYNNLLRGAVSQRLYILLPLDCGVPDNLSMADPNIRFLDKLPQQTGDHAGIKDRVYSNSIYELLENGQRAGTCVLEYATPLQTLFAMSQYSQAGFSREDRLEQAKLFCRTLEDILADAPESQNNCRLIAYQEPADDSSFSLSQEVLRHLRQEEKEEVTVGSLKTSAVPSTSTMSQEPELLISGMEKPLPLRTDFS

Q: For `Nc1nc2c(ncn2[C@@H]2O[C@@H]3COP(=O)(O)O[C@H]4[C@@H](O)[C@H](n5cnc6c(N)ncnc65)O[C@@H]4COP(=O)(O)O[C@@H]2[C@@H]3O)c(=O)[nH]1`, which metabolised at 72 h, 100 µM ([1]; 20% fetal bovine serum, read-out: Drug degradation) is on record?
A: 80%

Q: With `Nc1ncnc2c1ncn2[C@H]1C[C@@H]2OP(=O)(O)OC[C@H]3O[C@@H](n4cnc5c(N)ncnc54)C[C@@H]3OP(=O)(O)OC[C@H]2O1` as the compound, how does the Stability ([1]; serum, 72 h, 100 µM) read?
A: Stable

Q: What about the pEC50 [2] of the same compound?
A: 4.38

Q: What about the pEC50 [3] of the same compound?
A: 6.17

Q: And the pEC50 [4]?
A: 6.50

Q: Which results are given for `Nc1ncnc2c1ncn2[C@@H]1O[C@@H]2COP(=O)(S)O[C@@H]3[C@H](O)[C@@H](COP(=O)(S)O[C@H]2[C@H]1O)O[C@H]3n1cnc2c(N)ncnc21` (some centres not stated)?
A: survival at 1200 h [5]: 75%; Activity [6]: Active

— ChEMBL document CHEMBL5352443, “S-acylthioalkyl ester (SATE)-based prodrugs of deoxyribose cyclic dinucleotides (dCDNs) as the STING agonist for antitumor immunotherapy” (Eur J Med Chem, 2022)
